Literature values as cited in patent publication US20240383928A1, “PRODUCTION OF DIORGANOTIN DIHALIDES” (priority 2021, published 2024).

Tested on: mice
Details: intraperitoneal injection

C[CH2][Sn]([CH2]C)([CH2]C)[CH2]C [Sn(C2H5)4]
2-hr. LD50: 660 mg/kg | 24-hr. LD50: 130 mg/kg

[CH3][Sn]([CH3])([CH3])[CH3] [Sn(CH3)4, tetramethyl tin]
2-hr. LD50: 140 mg/kg | 24-hr. LD50: 18 mg/kg

CC[N+](CC)(CC)CC.[Cl-] [N(C2H5)4Cl]
LD50 (time not stated, all animals that survived for 25 minutes recovered): 60 mg/kg
